# In US11000033B2, “Ketone or oxime compound, and herbicide” (NISSAN CHEMICAL CORPORATION, priority 2014, dated 2021):
# How the values were obtained:
# Format in all cases: in vivo
# [1] = system: corn; test: Test Example 4: effect on crop by soil treatment (symbol c); details: for c: corn, effect on crop grade: application herbicide amount 320 g/ha; for c: corn, effect grade on crop: 320 g/ha
# Method in brief: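 The test used sterilized diluvial soil. Seed was set down in spots and overlaid with about 1.5 cm of soil before growth in a greenhouse kept at 25° C. to 30° C.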
# [2] = system: Galium spurium; test: Test Example 5: herbicidal effect by foliage application, plastic box (symbol Q); details: 320 g/ha, 3 weeks after application
# Method in brief: (§1)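 Sowing in sterilized diluvial soil, 14 days' greenhouse growth at 25° C. to 30° C., then uniform small-sprayer foliar application of aqueous emulsion dilution; plants scored three weeks afterwards.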
# [3] = system: Digitaria ciliaris; test: Test Example 5: herbicidal effect by foliage application, plastic box (symbol F); details: 320 g/ha, 3 weeks after application
# Method in brief: as §1
# [4] = system: Scirpus juncoides; test: Test Example 1: herbicidal activity, application before weed generation in submerged conditions (symbol B); details: application herbicide amount 320 g/ha
# Method in brief: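 Compound emulsion was diluted to a set herbicide amount and applied to the water surface on the sowing day, into submerged (4 cm) alluvial-soil pots sown with mixed weed seeds and transplanted 2.5-leaf rice. Pots were held in a 25–30 °C greenhouse, and weeds were scored 0–5 by herbicidal ratio after 3 weeks.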
# [5] = system: Alopecurus myosuroides; test: Test Example 4: herbicidal effect by soil treatment (symbol J)
# Method in brief: (§2)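 Seeds were sown in sterilized diluvial soil, covered with about 1.5 cm of soil, and the soil surface was sprayed with a water-diluted emulsion of the compound at a predetermined rate. Plants grew in a greenhouse at 25° C. to 30° C.; effects were scored visually 3 weeks after application.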
# [6] = system: Abutilon theophrasti; test: Test Example 4: herbicidal effect by soil treatment (symbol M)
# Method in brief: as §2
# [7] = system: Cyperus difformis; test: Test Example 3: herbicidal effect by foliage application, Wagner pot (symbol E); details: application herbicide amount 320 g/ha
# Method in brief: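 In a shallow-flooded alluvial soil system held at 25–30 °C, plants including rice grew for 14 days and were then sprayed over the foliage with emulsion diluted to a fixed herbicide amount. Visual rating followed at 3 weeks.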
# [8] = system: Amaranthus retroflexus; test: Test Example 5: herbicidal effect by foliage application, plastic box (symbol N); details: 320 g/ha, 3 weeks after application
# Method in brief: as §1
# [9] = system: Abutilon theophrasti; test: Test Example 5: herbicidal effect by foliage application, plastic box (symbol M); details: 320 g/ha, 3 weeks after application
# Method in brief: as §1
# [10] = application herbicide amount 320 g/ha
SMILES,"c: corn, effect on crop grade [1]","Q: Galium spurium, herbicidal effect grade [2]","F: Digitaria ciliaris, herbicidal effect grade [3]","Herbicidal effect grade, B: Scirpus juncoides [4]","J: Alopecurus myosuroides, herbicidal effect grade [5, 10]","M: Abutilon theophrasti, herbicidal effect grade [6, 10]","herbicidal effect on E, grade 0-5 [7]","N: Amaranthus retroflexus, herbicidal effect grade [8]","M: Abutilon theophrasti, herbicidal effect grade [9]","c: corn, effect grade on crop [1]","J: Alopecurus myosuroides, herbicidal effect grade ([5]; 320 g/ha)","M: Abutilon theophrasti, herbicidal effect grade ([6]; 320 g/ha)","Q: Galium spurium, herbicidal effect (criteria 0-5) [2]","F: Digitaria ciliaris, herbicidal effect (criteria 0-5) [3]","N: Amaranthus retroflexus, herbicidal effect (criteria 0-5) [8]","M: Abutilon theophrasti, herbicidal effect (criteria 0-5) [9]"
CON=C(C)CC1CC(O)=C(c2c(C)cc(C#CCO)cc2C)C1=O (mixture of isomers) [6-025],0 (Herbicidal ratio of 5% or lower (almost no effect)),0 (Herbicidal ratio of 5% or lower (almost no effect)),4 (Herbicidal ratio of 70% or higher and lower than 90%),0 (Herbicidal ratio of 5% or lower (almost no effect)),2 (Herbicidal ratio of 20% or higher and lower than 40%),0 (Herbicidal ratio of 5% or lower (almost no effect)),4 (Herbicidal ratio of 70% or higher and lower than 90%),0 (Herbicidal ratio of 5% or lower (almost no effect)),0 (Herbicidal ratio of 5% or lower (almost no effect)),,,,,,,
COC(=O)C(C(C)=O)C1CC(O)=C(c2c(C)cc(C)cc2C)C1=O (stereo not drawn) [2-003],,0 (Herbicidal ratio of 5% or lower (almost no effect)),4 (Herbicidal ratio of 70% or higher and lower than 90%),0 (Herbicidal ratio of 5% or lower (almost no effect)),,,4 (Herbicidal ratio of 70% or higher and lower than 90%),0 (Herbicidal ratio of 5% or lower (almost no effect)),1 (Herbicidal ratio of 5% or higher and lower than 20%),0 (Herbicidal ratio of 5% or lower (almost no effect)),4 (Herbicidal ratio of 70% or higher and lower than 90%),0 (Herbicidal ratio of 5% or lower (almost no effect)),,,,
CCC(=O)CCC1CC(O)=C(c2c(C)cc(C)cc2C)C1=O (stereo not drawn) [5-001],0 (Herbicidal ratio of 5% or lower (almost no effect)),0 (Herbicidal ratio of 5% or lower (almost no effect)),4 (Herbicidal ratio of 70% or higher and lower than 90%),0 (Herbicidal ratio of 5% or lower (almost no effect)),2 (Herbicidal ratio of 20% or higher and lower than 40%),0 (Herbicidal ratio of 5% or lower (almost no effect)),0 (Herbicidal ratio of 5% or lower (almost no effect)),0 (Herbicidal ratio of 5% or lower (almost no effect)),0 (Herbicidal ratio of 5% or lower (almost no effect)),,,,,,,
CON=C(C)CC1CC(OC(=O)c2ccc(C(F)(F)F)cc2)=C(c2c(C)cc(C)cc2C)C1=O (stereo not drawn) [1-149],,,,5 (Herbicidal ratio of 90% or more (almost completely withered)),,,5 (Herbicidal ratio of 90% or more (almost completely withered)),,,2 (Herbicidal ratio of 20% or higher and lower than 40%),5 (Herbicidal ratio of 90% or more (almost completely withered)),5 (Herbicidal ratio of 90% or more (almost completely withered)),3 (Herbicidal ratio of 40% or higher and lower than 70%),5 (Herbicidal ratio of 90% or more (almost completely withered)),0 (Herbicidal ratio of 5% or lower (almost no effect)),4 (Herbicidal ratio of 70% or higher and lower than 90%)
C=CC(=O)CC1CC(O)=C(c2c(C)cc(C)cc2C)C1=O (stereo not drawn) [2-031],5 (Herbicidal ratio of 90% or more (almost completely withered)),0 (Herbicidal ratio of 5% or lower (almost no effect)),5 (Herbicidal ratio of 90% or more (almost completely withered)),4 (Herbicidal ratio of 70% or higher and lower than 90%),3 (Herbicidal ratio of 40% or higher and lower than 70%),1 (Herbicidal ratio of 5% or higher and lower than 20%),5 (Herbicidal ratio of 90% or more (almost completely withered)),0 (Herbicidal ratio of 5% or lower (almost no effect)),0 (Herbicidal ratio of 5% or lower (almost no effect)),,,,,,,
CON=C(C)CC1CC(OC(=O)c2c(Cl)nn(C)c2Cl)=C(c2c(C)cc(C)cc2C)C1=O (stereo not drawn) [1-160],,4 (Herbicidal ratio of 70% or higher and lower than 90%),5 (Herbicidal ratio of 90% or more (almost completely withered)),4 (Herbicidal ratio of 70% or higher and lower than 90%),,,5 (Herbicidal ratio of 90% or more (almost completely withered)),0 (Herbicidal ratio of 5% or lower (almost no effect)),4 (Herbicidal ratio of 70% or higher and lower than 90%),0 (Herbicidal ratio of 5% or lower (almost no effect)),5 (Herbicidal ratio of 90% or more (almost completely withered)),4 (Herbicidal ratio of 70% or higher and lower than 90%),,,,
Cc1cc(C)c(C2=C(O)CC(CC(=O)CC3CC3)C2=O)c(C)c1 (stereo not drawn) [2-026],1 (Herbicidal ratio of 5% or higher and lower than 20%),0 (Herbicidal ratio of 5% or lower (almost no effect)),4 (Herbicidal ratio of 70% or higher and lower than 90%),3 (Herbicidal ratio of 40% or higher and lower than 70%),3 (Herbicidal ratio of 40% or higher and lower than 70%),0 (Herbicidal ratio of 5% or lower (almost no effect)),5 (Herbicidal ratio of 90% or more (almost completely withered)),0 (Herbicidal ratio of 5% or lower (almost no effect)),0 (Herbicidal ratio of 5% or lower (almost no effect)),,,,,,,
Cc1cc(C)c(C2=C(O)CC(CC(=O)C(C)C)C2=O)c(C)c1 (stereo not drawn) [2-016],3 (Herbicidal ratio of 40% or higher and lower than 70%),0 (Herbicidal ratio of 5% or lower (almost no effect)),5 (Herbicidal ratio of 90% or more (almost completely withered)),0 (Herbicidal ratio of 5% or lower (almost no effect)),4 (Herbicidal ratio of 70% or higher and lower than 90%),0 (Herbicidal ratio of 5% or lower (almost no effect)),4 (Herbicidal ratio of 70% or higher and lower than 90%),3 (Herbicidal ratio of 40% or higher and lower than 70%),4 (Herbicidal ratio of 70% or higher and lower than 90%),,,,,,,
CON=C(C)CC1CC(O)=C(c2c(C)cc(C)cc2Br)C1=O (stereo not drawn) [6-038],5 (Herbicidal ratio of 90% or more (almost completely withered)),0 (Herbicidal ratio of 5% or lower (almost no effect)),5 (Herbicidal ratio of 90% or more (almost completely withered)),4 (Herbicidal ratio of 70% or higher and lower than 90%),5 (Herbicidal ratio of 90% or more (almost completely withered)),5 (Herbicidal ratio of 90% or more (almost completely withered)),5 (Herbicidal ratio of 90% or more (almost completely withered)),5 (Herbicidal ratio of 90% or more (almost completely withered)),5 (Herbicidal ratio of 90% or more (almost completely withered)),,,,,,,
